Laboratory results: patent publication US8790898B2 (priority 2008, dated 2014)
Several values for one entry are separate records, joined by “and”; a condition that tells them apart may be missing. Identical values can stand only once. Entries after “also recorded” stand apart in the source; their conditions may differ. Like-named read-outs stand apart in the source and are kept apart here.

Assays:
[1] = system: IgG antibodies in human HIV-1 positive sera; assay type: binding; conditions: for HIV-1 positive sera reacting in ELISA / sera tested / mean OD 450 nm ± S.D. of reacting sera: sera at 1000-fold dilution
[2] = system: HIV-1 BZ 167; assay type: cell-based; conditions: for Inhibition of HIV-infection: 50-fold dilution of guinea pig immune sera (bleeds S5), HIV-1 BZ 167, p24 at 5 days post infection; for Inhibition of HIV infection: 100 fold dilution of guinea pig immune serum (bleeds S5), HIV-1 BZ 162, human CD4+ T lymphocytes
[3] = system: CBD1, C13K, CBD1/A and C10M peptides and the CBD1-KLH Construct; conditions: guinea pig, in vivo
[4] = target: CBD1, C13K, CBD1/A and C10M peptides and the CBD1-KLH Construct (Human immunodeficiency virus type 1 group M subtype B, UniProt P04578, E630Q/H625N/T626M); conditions: guinea pig, in vivo
[5] = target: CBD1, C13K, CBD1/A and C10M peptides and the CBD1-KLH Construct (Human immunodeficiency virus type 1 group M subtype B, UniProt P04578); conditions: guinea pig, in vivo
[6] = system: CBD1 peptide and CBD1- and CBM-based peptides; parameters: species or system BALB/c mice; conditions: mouse, in vivo; for ELISA against the Immunogen (OD) / ELISA C17K / ELISA K23M / ELISA K24W / ELISA K27M / ELISA K27W / ELISA K27W(G) / ELISA K30W(G) / ELISA p6362 / ELISA titer against C17K / IgG2/IgG1 ratio: sc
[7] = system: HIV-1 BZ 167; assay type: cell-based
[8] = system: CBD1 peptide specific IFN-γ spot forming cells; parameters: species or system cynomolgus macaques (Macaca fascicularis); conditions: cynomolgus monkey, in vivo
[9] = system: primary HIV-1 BZ 167 isolate; assay type: cell-based; conditions: rabbit immune serum; dilution resulting 50% inhibition of HIV-1 infection; listed as CBD1
[10] = system: CBD1 (C18K) and the Tet peptide; parameters: species or system cynomolgus macaques (Macaca fascicularis); conditions: cynomolgus monkey, in vivo
[11] = target: CBD1 peptide (Human immunodeficiency virus type 1 group M subtype B, UniProt P04578, E630Q/H625N/T626M); conditions: rabbits, 150 μg/injection, CFA, ten days after 5th immunization; against CBD1; reciprocal dilution giving OD450 = 0.1

Question: Which “HIV-1 positive sera reacting in ELISA / sera tested” value ([1]; Brazil, n = 22) does the source give for SLEQIWNNMTWMQWDK [CBD1 peptide 618-633] here?
Answer: 1/22

Question: What about the “mean OD 450 nm ± S.D. of reacting sera” value ([1]; Brazil, n = 22) of the same substance?
Answer: 0.75 OD

Question: And the “HIV-1 positive sera reacting in ELISA / sera tested” value ([1]; Chili, n = 24)?
Answer: 1/24

Question: What about the “mean OD 450 nm ± S.D. of reacting sera” value ([1]; Chili, n = 24) of the same substance?
Answer: 0.30 OD

Question: And the “HIV-1 positive sera reacting in ELISA / sera tested” value ([1]; France, n = 81)?
Answer: 4/81

Question: And the “mean OD 450 nm ± S.D. of reacting sera” value ([1]; France, n = 81)?
Answer: 0.33 ± 0.05 OD

Question: Which “Inhibition of HIV-infection” value [2] does the source give for KLH-CSLEQIWNNMTWMQWDK [KLH-C17K] here?
Answer: No Effect

Question: What about the “ELISA C13K (titer)” value [3] of the same substance?
Answer: <200

Question: And the “ELISA CBD1/A (titer)” value [3]?
Answer: <200

Question: And the “ELISA KLH (titer against the CBD1-KLH construct)” value (“ELISA KLH” below) [3]?
Answer: <200

Question: What about the “ELISA CBD1 (titer)” value [4] of the same substance?
Answer: <200

Question: What about the “ELISA C10M (titer)” value [5] of the same substance?
Answer: <200

Question: Which “ELISA against the Immunogen (OD)” value [6] does the source give for “KRWIILGLNKIVRMYKKCSLEQIWNNM [K27M]” here?
Answer: 1.38 OD

Question: And the “% Inhibition of HIV-1 infection at 200-fold dilution” value [7]?
Answer: 65%

Question: And the “Neutralizing activity ID50 Fold-Dilution” value [7]?
Answer: 250-fold

Question: “KRWIILGLNKIVRMYGPGPGIWNNMTW [K27W(G)]” was tested. Which “ELISA C17K” value [6] did it give?
Answer: <0.20

Question: And the “ELISA K23M” value [6]?
Answer: <0.20

Question: And the “ELISA K24W” value [6]?
Answer: <0.20

Question: And the “ELISA K27M” value [6]?
Answer: <0.20

Question: And the “ELISA K27W” value [6]?
Answer: <0.20

Question: And the “ELISA K27W(G)” value [6]?
Answer: 0.66 ± 0.22

Question: And the “ELISA K30W(G)” value [6]?
Answer: <0.20

Question: And the “ELISA against the Immunogen (OD)” value [6]?
Answer: 0.73 OD

Question: And the “ELISA p6362” value [6]?
Answer: <0.20

Question: What about the “% Inhibition of HIV-1 infection at 200-fold dilution” value [7] of the same substance?
Answer: 16%

Question: What about the “Neutralizing activity ID50 Fold-Dilution” value [7] of the same substance?
Answer: 100-fold

Question: Which results are given for CKSLEQIWNNMTWMQWDK [C18K]?
Answer: ELISA titer against C17K [6]: 1.75 ± 0.60; % inhibition of HIV-1 at 200-fold dilution [7]: 65%; Neutralizing activity ID50 [7]: 250-fold

Question: How did the “immunized animals in each group that developed a significant level of T-cell response against the CBD1 epitope” value [8] turn out when “C-S-L-E-Q-I-W-N-N-M-T-W-M-Q-W-D-K [C17K]” was run?
Answer: one out of the three

Question: What about the “HIV Inhibition (ID50)” value [9] of the same substance?
Answer: 250 and 200

Question: What about the IgG2/1gG1 ratio [6] of the same substance?
Answer: 0.96 and 1.15

Question: And the “Titer (ELISA)” value [6]?
Answer: 256,000 and 384,000

Question: And the “ELISA C17K” value [6]?
Answer: 1.94 ± 0.28

Question: And the “ELISA K23M” value [6]?
Answer: <0.20

Question: What about the “ELISA K24W” value [6] of the same substance?
Answer: <0.20

Question: What about the “ELISA K27M” value [6] of the same substance?
Answer: 2.91 ± 0.26

Question: What about the “ELISA K27W” value [6] of the same substance?
Answer: <0.20

Question: What about the “ELISA K27W(G)” value [6] of the same substance?
Answer: <0.20

Question: What about the “ELISA K30W(G)” value [6] of the same substance?
Answer: <0.20

Question: And the “ELISA against the Immunogen (OD)” value [6]?
Answer: 1.22 OD

Question: And the “ELISA p6362” value [6]?
Answer: 1.78 ± 0.22

Question: What about the “ELISA titer against C17K” value [6] of the same substance?
Answer: 1.94 ± 0.45

Question: And the IgG2/IgG1 ratio [6]?
Answer: 1.08

Question: What about the “Inhibition of HIV-infection” value ([2]; listed as CBD1) of the same substance?
Answer: 66% and 57%

Question: What about the “Inhibition of HIV infection” value ([2]; listed as CBD1) of the same substance?
Answer: 66% and 57%

Question: And the “HIV Inhibition (ID50)” value ([2]; guinea pig immune serum, dilution resulting 50% inhibition of HIV-1 infection, listed as CBD1)?
Answer: 50 and <50

Question: What about the “% Inhibition of HIV-1 infection at 200-fold dilution” value [7] of the same substance?
Answer: 59%

Question: What about the “% inhibition of HIV-1 at 200-fold dilution” value [7] of the same substance?
Answer: 75%

Question: What about the “HIV Inhibition (ID50)” value [7] of the same substance?
Answer: 250 and 300

Question: What about the “Neutralizing activity ID50” value [7] of the same substance?
Answer: 250-fold

Question: What about the “Neutralizing activity ID50 Fold-Dilution” value [7] of the same substance?
Answer: 300-fold

Question: What about the “sera found to be positive in ELISA” value ([1]; another cohort of 75 HIV-1-positive individuals) of the same substance?
Answer: two

Question: What about the “titer of anti-CBD1 peptide antibodies” value ([1]; listed as CBD1) of the same substance?
Answer: 6,400 and 12,800

Question: What about the “ELISA C13K (titer)” value [3] of the same substance?
Answer: 128,000

Question: And the “ELISA CBD1/A (titer)” value [3]?
Answer: 12,000 and 16,000

Question: And the “ELISA KLH” value [3]?
Answer: <200

Question: And the IgG2/1gG1 ratio [3]?
Answer: 4.10 and 3.75

Question: And the “ELISA CBD1 (titer)” value [4]?
Answer: 128,000

Question: And the “Titer (ELISA)” value [4]?
Answer: 128,000 and 96,000

Question: What about the “ELISA C10M (titer)” value [5] of the same substance?
Answer: 12,000

Question: And the “macaques that developed high antibody titers” value [10]?
Answer: two out of the three; also recorded: one out of the three

Question: And the “Titer (ELISA)” value [11]?
Answer: 768,000 and 640,000

Question: For “RGDAQYIKANSKFIGITELKKIWNNMTWMQWDK (RGDAQYIKANSKFIGITELKKIWNNMTWMQWDK) [R33K]”, which “ELISA titer against C17K” value [6] is on record?
Answer: 1.66 ± 0.37

Question: What about the IgG2/IgG1 ratio [6] of the same substance?
Answer: 4.05

Question: And the “% inhibition of HIV-1 at 200-fold dilution” value [7]?
Answer: 64%

Question: What about the “Neutralizing activity ID50” value [7] of the same substance?
Answer: 200-fold

Question: Which results are given for “C-I-W-N-N-M-T-W-M-Q-W-D-K (CIWNNMTWMQWDK) [C13K]”?
Answer: ELISA titer against C17K [6]: 0.03 ± 0.02; Inhibition of HIV-infection [2]: No Effect; % inhibition of HIV-1 at 200-fold dilution [7]: None; Neutralizing activity ID50 [7]: None; ELISA C13K (titer) [3]: 400 and 200; ELISA CBD1/A (titer) [3]: <200; ELISA KLH (titer against the CBD1-KLH construct) [3]: <200; ELISA CBD1 (titer) [4]: <200; ELISA C10M (titer) [5]: <200

Question: How did the “ELISA titer against C17K” value [6] turn out when “KQIINMWQVVGKAMYAKKCKSLEQIWNNMTWMQWDK (KQIINMWQVVGKAMYAKKCKSLEQIWNNMTWMQWDK)” was run?
Answer: 1.07 ± 0.33

Question: And the “% inhibition of HIV-1 at 200-fold dilution” value [7]?
Answer: 45%

Question: And the “Neutralizing activity ID50” value [7]?
Answer: 150-fold

Question: How did the “Inhibition of HIV-infection” value [2] turn out when “C-S-L-E-Q-I-A-N-N-M-T-A-M-Q-A-D-K (CSLEQIANNMTAMQADK) [CBD1/A]” was run?
Answer: no apparent neutralizing activity; also recorded: No Effect

Question: And the “Inhibition of HIV infection” value [2]?
Answer: did not inhibit

Question: What about the “ELISA C13K (titer)” value [3] of the same substance?
Answer: 2,000 and 1,000

Question: And the “ELISA CBD1/A (titer)” value [3]?
Answer: 128,000

Question: What about the “ELISA KLH” value [3] of the same substance?
Answer: <200

Question: What about the “ELISA CBD1 (titer)” value [4] of the same substance?
Answer: 20,000 and 16,000

Question: And the “ELISA C10M (titer)” value [5]?
Answer: 16,000
